Laboratory results published in PubChem BioAssay (NCI).
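Where inhibition never reached the appropriate level, the endpoint shown equals the highest concentration tested. Otherwise, values were interpolated linearly from a five-concentration, 48-hour dose response in 96-well plates. Definition used: TGI = concentration required for complete inhibition of growth.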

Legend:
Assay in all cases: inhibition of tumour cell growth, NCI panel, 48 h
UACC-257 melanoma = system: UACC-257 melanoma
M14 melanoma = system: M14 melanoma
PC-3 prostate = system: PC-3 prostate
SF-295 CNS = system: SF-295 CNS
OVCAR-3 ovarian = system: OVCAR-3 ovarian
HOP-92 NSCLC = system: HOP-92 NSCLC
OVCAR-8 ovarian = system: OVCAR-8 ovarian
OVCAR-4 ovarian = system: OVCAR-4 ovarian
SK-MEL-5 melanoma = system: SK-MEL-5 melanoma
TK-10 renal = system: TK-10 renal
NCI-H23 lung = system: NCI-H23 lung
HCC-2998 colon = system: HCC-2998 colon
SN12C renal = system: SN12C renal
MDA-MB-231 breast = system: MDA-MB-231 breast
EKVX NSCLC = system: EKVX NSCLC
HCT-15 colon = system: HCT-15 colon
IGROV1 ovarian = system: IGROV1 ovarian
SF-268 CNS = system: SF-268 CNS
ACHN renal = system: ACHN renal
HL-60(TB) leukemia = system: HL-60(TB) leukemia
MOLT-4 leukemia = system: MOLT-4 leukemia
UACC-62 melanoma = system: UACC-62 melanoma
HOP-62 NSCLC = system: HOP-62 NSCLC
NCI-H226 lung = system: NCI-H226 lung
U251 CNS = system: U251 CNS
MDA-MB-435 = system: MDA-MB-435
OVCAR-5 ovarian = system: OVCAR-5 ovarian
SF-539 CNS = system: SF-539 CNS
COLO 205 colon = system: COLO 205 colon
SK-MEL-28 melanoma = system: SK-MEL-28 melanoma
K-562 leukemia = system: K-562 leukemia
CAKI-1 renal = system: CAKI-1 renal
HS 578T breast = system: HS 578T breast
HT29 colon = system: HT29 colon
NCI-H460 lung = system: NCI-H460 lung
MCF7 breast = system: MCF7 breast
NCI-H522 lung = system: NCI-H522 lung
HCT-116 colon = system: HCT-116 colon
MALME-3M melanoma = system: MALME-3M melanoma
RPMI-8226 leukemia = system: RPMI-8226 leukemia
NCI/ADR-RES ovarian = system: NCI/ADR-RES ovarian
T-47D breast = system: T-47D breast
LOX IMVI melanoma = system: LOX IMVI melanoma
CCRF-CEM leukemia = system: CCRF-CEM leukemia
SNB-19 CNS = system: SNB-19 CNS
SK-OV-3 ovarian = system: SK-OV-3 ovarian
MDA-N = system: MDA-N
DU-145 prostate = system: DU-145 prostate
KM12 colon = system: KM12 colon
RXF 393 renal = system: RXF 393 renal
SR leukemia = system: SR leukemia
SW-620 colon = system: SW-620 colon
786-0 renal = system: 786-0 renal

O=C1Oc2cc3c(c4cccc1c24)O[C@H](c1ccccc1)[C@@H](c1ccccc1)[C@@H]3c1ccc(Cl)cc1
TGI (UACC-257 melanoma): > 100 µM
TGI (M14 melanoma): > 100 µM
TGI (PC-3 prostate): > 100 µM
TGI (SF-295 CNS): > 100 µM
TGI (OVCAR-3 ovarian): > 100 µM
TGI (HOP-92 NSCLC): 67.9 µM
TGI (OVCAR-8 ovarian): 95.8 µM
TGI (OVCAR-4 ovarian): > 100 µM
TGI (SK-MEL-5 melanoma): > 100 µM
TGI (TK-10 renal): > 100 µM
TGI (NCI-H23 lung): > 100 µM
TGI (HCC-2998 colon): > 100 µM
TGI (SN12C renal): > 100 µM
TGI (MDA-MB-231 breast): 52.3 µM
TGI (EKVX NSCLC): > 100 µM
TGI (HCT-15 colon): > 100 µM
TGI (IGROV1 ovarian): 77.4 µM
TGI (SF-268 CNS): > 100 µM
TGI (ACHN renal): > 100 µM
TGI (HL-60(TB) leukemia): > 100 µM
TGI (MOLT-4 leukemia): 64.3 µM
TGI (UACC-62 melanoma): > 100 µM
TGI (HOP-62 NSCLC): 42.8 µM
TGI (NCI-H226 lung): > 100 µM
TGI (U251 CNS): 50.1 µM
TGI (MDA-MB-435): > 100 µM
TGI (OVCAR-5 ovarian): > 100 µM
TGI (SF-539 CNS): > 100 µM
TGI (COLO 205 colon): > 100 µM
TGI (SK-MEL-28 melanoma): > 100 µM
TGI (K-562 leukemia): > 100 µM
TGI (CAKI-1 renal): > 100 µM
TGI (HS 578T breast): > 100 µM
TGI (HT29 colon): > 100 µM
TGI (NCI-H460 lung): > 100 µM
TGI (MCF7 breast): > 100 µM
TGI (NCI-H522 lung): > 100 µM
TGI (HCT-116 colon): > 100 µM
TGI (MALME-3M melanoma): > 100 µM
TGI (RPMI-8226 leukemia): > 100 µM
TGI (NCI/ADR-RES ovarian): > 100 µM
TGI (T-47D breast): > 100 µM
TGI (LOX IMVI melanoma): > 100 µM
TGI (CCRF-CEM leukemia): > 100 µM
TGI (SNB-19 CNS): > 100 µM
TGI (SK-OV-3 ovarian): > 100 µM
TGI (MDA-N): > 100 µM
TGI (DU-145 prostate): > 100 µM
TGI (KM12 colon): > 100 µM
TGI (RXF 393 renal): 40.1 µM
TGI (SR leukemia): 87.2 µM
TGI (SW-620 colon): > 100 µM
TGI (786-0 renal): > 100 µM
